Assay results as given in ChEMBL document CHEMBL3046533, “Molecular drug design, synthesis and pharmacophore site identification of spiroheterocyclic compounds: Trypanosoma crusi inhibiting studies” (Med Chem Res, 2013).

Experiments:
Trypanosoma cruzi [1] = assay: Ratio of nifurtimox IC50 to compound IC50 for benznidazole-resistant trypomastigote stage of Trypanosoma cruzi Y; assay type: functional
[2] = Cytotoxicity against Mus musculus BALB/c (mouse) splenocytes assessed as decrease in [3H]-thymidine incorporation after 24 hr by beta-radiation counting analysis; assay type: cell-based, Splenocyte; details: read-out: MNCC
Trypanosoma cruzi [3] = assay: Ratio of benznidazole IC50 to compound IC50 for benznidazole-resistant trypomastigote stage of Trypanosoma cruzi Y; assay type: functional
Trypanosoma cruzi [4] = assay: Antitypanosomal activity against benznidazole-resistant trypomastigote stage of Trypanosoma cruzi Y assessed as parasite growth inhibition after 24 hr by hemacytometric analysis; assay type: functional, organism-based
Trypanosoma cruzi [5] = assay: Antitypanosomal activity against benznidazole-resistant epimastigote stage of Trypanosoma cruzi Y assessed as parasite growth inhibition after 11 days by hemacytometric analysis; assay type: functional, organism-based
[6] = Cytotoxicity against Mus musculus BALB/c (mouse) splenocytes assessed as decrease in [3H]-thymidine incorporation at 1 to 100 ug/mL after 24 hr by beta-radiation counting analysis relative to untreated control; assay type: cell-based; details: splenocyte
[7] = Trypanosoma cruzi, Y, 24 h, read-out: IC50
[8] = Trypanosoma cruzi, Y, 264 h, read-out: IC50

Row | SMILES | Ratio IC50 (Trypanosoma cruzi [1]) | MNTC at 24 h [2] | Ratio IC50 (Trypanosoma cruzi [3]) | IC50 (Trypanosoma cruzi [4]; [7]) [µM] | IC50 (Trypanosoma cruzi [5]; [8]) [µM] | IC50 (Trypanosoma cruzi [4]) | Activity [6] | IC50 (Trypanosoma cruzi [5])
1 | Cc1ccc(C2=NOC3(SCc4ccccc4C3=O)C2c2ccc(C)cc2)cc1 (stereo unspecified) | 3 | 50 µg/mL | 3 | 3.78 | 19.1 | – | – | –
2 | COc1ccc(C2C(c3ccc(C)cc3)=NOC23SCc2ccccc2C3=O)cc1 (stereo unspecified) | – | 5 µg/mL | – | 19 | 5.5 | – | – | –
3 | COc1ccc(C2=NOC3(SCc4ccccc4C3=O)C2c2ccc(C)cc2)cc1 (stereo unspecified) | 3 | 10 µg/mL | 3 | 1.9 | 62.5 | – | – | –
4 | COc1ccc(C2=NOC3(SCc4ccccc4C3=O)C2c2ccc(OC)cc2)cc1 (stereo unspecified) | – | 50 µg/mL | – | 1.5 | 1.95 | – | – | –
5 | O=C1c2ccccc2CSC12ON=C(c1ccc(Cl)cc1)C2c1ccc([N+](=O)[O-])cc1 (stereo unspecified) | – | 5 µg/mL | – | 22 | 20.5 | – | – | –
6 | Cc1ccc(C2C(c3ccc([N+](=O)[O-])cc3)=NOC23SCc2ccccc2C3=O)cc1 (stereo unspecified) | – | 50 µg/mL | – | 45.4 | 27.9 | – | – | –
7 | COc1ccc(C2C(c3ccccc3)=NOC23CSc2ccccc2C3=O)cc1 (stereo unspecified) | – | – | – | – | – | Not Active | Non-toxic | Not Active
8 | Cc1ccc(C2=NOC3(CSc4ccccc4C3=O)C2c2ccccc2)cc1 (stereo unspecified) | – | – | – | – | – | Not Active | Non-toxic | Not Active
9 | COc1ccc(C2C(c3ccc(C)cc3)=NOC23CSc2ccccc2C3=O)cc1 (stereo unspecified) | – | – | – | – | – | Not Active | Non-toxic | Not Active
10 | Cc1ccc(C2=NOC3(CSc4ccccc4C3=O)C2c2ccc([N+](=O)[O-])cc2)cc1 (stereo unspecified) | – | – | – | – | – | Not Active | Non-toxic | Not Active
11 | O=C(Cn1ccnc1[N+](=O)[O-])NCc1ccccc1 [BENZNIDAZOLE] | – | – | – | – | 6.6 | – | – | –
12 | CC1CS(=O)(=O)CCN1/N=C/c1ccc([N+](=O)[O-])o1 (stereo unspecified) [NIFURTIMOX] | – | 3.4 µM | – | – | – | – | – | –
